pIC50: −log10 of the molar value.
Molecular target: recombinant HCV RNA-dependent RNA polymerase (NS5B protein) (Hepatitis C virus genotype 1b, UniProt P26663)
Assay: biochemical
Parameters: species or system HCV-Bk strain

Chain of recombinant HCV RNA-dependent RNA polymerase (NS5B protein) (P26663 2420-3010 limits assumed): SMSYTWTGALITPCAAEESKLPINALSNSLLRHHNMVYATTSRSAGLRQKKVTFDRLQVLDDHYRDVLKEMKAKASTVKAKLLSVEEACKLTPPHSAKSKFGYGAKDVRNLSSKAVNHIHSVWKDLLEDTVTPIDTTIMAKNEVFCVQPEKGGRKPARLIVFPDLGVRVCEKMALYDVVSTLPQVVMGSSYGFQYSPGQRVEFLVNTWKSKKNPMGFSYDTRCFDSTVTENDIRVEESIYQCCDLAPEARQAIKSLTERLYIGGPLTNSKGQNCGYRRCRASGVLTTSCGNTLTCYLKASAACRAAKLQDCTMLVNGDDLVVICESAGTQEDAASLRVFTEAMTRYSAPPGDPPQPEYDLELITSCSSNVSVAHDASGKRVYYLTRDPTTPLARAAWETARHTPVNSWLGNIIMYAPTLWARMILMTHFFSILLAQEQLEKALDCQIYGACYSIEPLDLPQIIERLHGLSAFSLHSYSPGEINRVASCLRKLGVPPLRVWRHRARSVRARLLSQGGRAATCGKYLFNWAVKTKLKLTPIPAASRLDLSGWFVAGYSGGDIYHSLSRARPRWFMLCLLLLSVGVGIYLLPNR

Q: How did the pIC50 turn out when `CC(=O)c1ccc(-c2cc(N(C(=O)[C@H]3CC[C@H](C)CC3)[C@H]3CC[C@H](O)CC3)c(C(=O)O)s2)cc1` [Compound 85, 5-(4-acetyl-phenyl)-3-[(4-hydroxy-cyclohexyl)-(4-methyl-cyclohexanecarbonyl)-amino]-thiophene-2-carboxylic acid] was run?
A: The pIC50 was over 5.30.

Q: How did the pIC50 turn out when `C[C@H]1CC[C@H](C(=O)N(c2cc(-c3ccccc3)sc2C(=O)O)[C@H]2CC[C@](C)(O)CC2)CC1` [Compound 88, 3-[(4-hydroxy-4-methyl-cyclohexyl)-(4-methyl-cyclohexanecarbonyl)-amino]-5-phenyl-thiophene-2-carboxylic acid] was run?
A: Its pIC50 is over 5.30.

Q: How did the pIC50 turn out when `C[C@H]1CC[C@H](C(=O)N(c2cc(-c3ccccc3)sc2C(=O)O)[C@H]2CC[C@H](O)C2)CC1` [Compound 90, 3-[(3-hydroxy-cyclopentyl)-(4-methyl-cyclohexanecarbonyl)-amino]-5-phenyl-thiophe-2-carboxylic acid] was run?
A: Its pIC50 is over 5.30.
